According to patent US8168656B2, “Indoleacetic acid and indenacetic acid derivatives as therapeutic agents with reduced gastrointestinal toxicity” (Vanderbilt University, priority 2009, dated 2012):

Columns and labels:
[1] = system: cultured cancer cells; test: Induction of apoptosis of cultured cancer cells; assay type: cell-based, human
Description: RKO, HCT-116 (another human colorectal cancer cell line), and H1299 (a human non-small cell cancer line) cells that had been treated with test compounds for various times were washed twice with ice-cold PBS and lysed in a lysis buffer (BioVision) on ice for 10 minutes, followed by centrifugation at 15,000×g for 10 minutes. Caspase-3 activity, which is a measure if the initiation of apoptotic cell death, was determined in the supernatant by a colorimeric assay kit (BioVision Inc., Palo Alto, Calif., United States of America) using the p-nitroanilide-labeled peptide, DEVD-pNA, as substrate. Caspase-3 activity was monitored by the release of p-nitroanilide from the substrate at 405 nm. The fold increase in caspase-3 activity is shown in FIG. 9, and was calculated by comparing the absorbance of p-nitroanilide from vehicle treated controls and those treated with sulindac sulfide and its analogs. […]

[2] = system: PPARγ; test: PPARγ reporter assay in transfected HEK293 cells; assay type: cell-based; conditions: transfected cells in culture
Description: Human embryonic kidney cells (HEK293 cells) were purchased from American Type Culture Collection (ATCC) and maintained in Dulbecco's modified Eagle's medium (DMEM) with GIBCO™ GLUTAMAX™ (Invitrogen Corp., Carlsbad, Calif., United States of America) and 10% heat-inactivated FBS (Atlas Biological, Fort Collins, Colo., United States of America) or 10% charcoal-stripped FBS (HyClone, Logan, Utah, United States of America) in a 5% CO2 constant humidity 37° C. incubator. 9×10^5 HEK293 cells were plated in DMEM supplemented with 10% charcoal-stripped FBS. 18-24 hours after plating, cells were transfected with a control Renilla luciferase expressing plasmid (0.2 μg pCMV-renilla luciferase from Promega Corp., Madison, Wis., United States of America), 0.4 μg PPARγ-GAL4, and 0.4 μg UAS-tk-luc using a lipid ratio of 8 μL Effectene Transfection Reagent (Qiagen Inc., Valencia, Calif., United States of America) per 1 μg DNA in 3 mL of DMEM+10% charcoal-stripped FBS. Cells remained in the transfection mixture overnight until the transfection media was replaced with DMEM+10% charcoal-stripped serum containing ligands of interest or vehicle (0.1% DMSO) […]

[3] = system: C57/BL6 mice; test: Toxicity in vivo, daily injections; conditions: daily injections of a series of concentrations

With `COc1ccc2c(c1)c(CC(=O)O)cn2C(=O)c1ccc(Cl)cc1` [2-Des-methylindomethacin, [1-(4-Chloro-benzoyl)-5-methoxy-1H-indol-3-yl]-acetic acid] the “ability to induce apoptosis of cultured cancer cells, compared with parent drug” value [1] was “as active or more active than the parent drug”, the “ability to activate PPARγ-mediated transcription in transfected cells, compared with parent drug” value [2] was “as active or more active than the parent drug” and the “less toxic than indomethacin” value [3] was “at least 25 fold”.
For `CSc1ccc(C=C2C=C(CC(=O)O)c3cc(F)ccc32)cc1` [eindenic acid sulfide, [6-Fluoro-3-(4-methylsulfanyl-benzylidene)-3H-inden-1-yl]-acetic acid], the “ability to induce apoptosis of cultured cancer cells, compared with parent drug” value [1] was “considerably more active than sulindac sulfide” and the “ability to activate PPARγ-mediated transcription in transfected cells, compared with parent drug” value [2] was “considerably more active than sulindac sulfide”.
